Patent US11000033B2, “Ketone or oxime compound, and herbicide” (NISSAN CHEMICAL CORPORATION, priority 2014, dated 2021)

Experiments:
Type in all cases: in vivo
transplanted rice plant = assay: Test Example 1: effect on crop, application before weed generation in submerged conditions (symbol a); details: application herbicide amount 320 g/ha
In short: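 Rice at 2.5 leaf stage transplanted into submerged soil (4 cm depth) sown with three weed species; herbicide applied before weed emergence.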

Scirpus juncoides = assay: Test Example 2: herbicidal activity, application during weed generation in submerged conditions (symbol B); details: Table 23; application herbicide amount 320 g/ha; grade 0-5 by criteria of Test Example 1
In short: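 Seeds sown in flooded alluvial soil (4 cm water) were grown in a 25-30° C greenhouse. At the one- to two-leaf stage, diluted emulsion of compound was applied to the water surface at a predetermined rate. Effect was scored 3 weeks later.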

Digitaria ciliaris = assay: Test Example 4: herbicidal effect by soil treatment (symbol F)
In short: (§1)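 Seeds were sown in sterilized diluvial soil, covered with about 1.5 cm of soil, and the soil surface was sprayed with a water-diluted emulsion of the compound at a predetermined rate. Plants grew in a greenhouse at 25° C. to 30° C.; effects were scored visually 3 weeks after application.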

Alopecurus myosuroides [1] = assay: Test Example 4: herbicidal effect by soil treatment (symbol J)
In short: as §1

Veronica persica [2] = assay: Test Example 4: herbicidal effect by soil treatment (symbol R)
In short: as §1

corn [3] = assay: Test Example 4: effect on crop by soil treatment (symbol c); details: for c: corn, effect on crop grade: application herbicide amount 320 g/ha
In short: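 Crop seed is sown in spots together with several weed species in a box of sterilized diluvial soil. It is covered by about 1.5 cm of soil and kept in a greenhouse held between 25° C. and 30° C.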

rice = assay: Test Example 4: effect on crop by soil treatment (symbol b); details: for b: directly sowed rice plant, effect on crop grade: application herbicide amount 320 g/ha
In short: (§2)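 Plants grew in a 25° C. to 30° C. greenhouse after spot-sowing of seeds, including beet, rapeseed, wheat and rice, into sterilized diluvial soil under roughly 1.5 cm of cover soil.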

rapeseed = assay: Test Example 4: effect on crop by soil treatment (symbol g); details: for g: rapeseed, effect on crop grade: application herbicide amount 320 g/ha
In short: as §2

Alopecurus myosuroides [4] = assay: Test Example 5: herbicidal effect by foliage application, plastic box (symbol J); details: 320 g/ha, 3 weeks after application
In short: (§3)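 Emulsion formulation, diluted with water to the intended rate, was applied uniformly to leaves by small sprayer. Recipients were 14-day greenhouse-grown seedlings (25° C. to 30° C.). Assessment followed at 3 weeks.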

Lolium multiflorum Lam. = assay: Test Example 5: herbicidal effect by foliage application, plastic box (symbol K); details: 320 g/ha, 3 weeks after application
In short: as §3

Veronica persica [5] = assay: Test Example 5: herbicidal effect by foliage application, plastic box (symbol R); details: 320 g/ha, 3 weeks after application
In short: as §3

corn [6] = assay: Test Example 5: effect on crop by foliage application, plastic box (symbol c); details: 320 g/ha, 3 weeks after application
In short: (§4)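 Crop and weed seeds sown in spots in sterilized diluvial soil in plastic boxes and covered with about 1.5 cm soil. Plants raised in a greenhouse at 25° C. to 30° C. for foliar application.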

wheat = assay: Test Example 5: effect on crop by foliage application, plastic box (symbol e); details: 320 g/ha, 3 weeks after application
In short: as §4

beet = assay: Test Example 5: effect on crop by foliage application, plastic box (symbol f); details: 320 g/ha, 3 weeks after application
In short: as §4

[7] = application herbicide amount 320 g/ha

Compound | Effect grade on crop, a: transplanted rice plant (transplanted rice plant) | Herbicidal effect grade, B: Scirpus juncoides (Scirpus juncoides) | F: Digitaria ciliaris, herbicidal effect grade (Digitaria ciliaris; [7]) | J: Alopecurus myosuroides, herbicidal effect grade (Alopecurus myosuroides [1]; [7]) | R: Veronica persica, herbicidal effect grade (Veronica persica [2]; [7]) | c: corn, effect on crop grade (corn [3]) | b: directly sowed rice plant, effect on crop grade (rice) | g: rapeseed, effect on crop grade (rapeseed) | J: Alopecurus myosuroides, herbicidal effect grade (Alopecurus myosuroides [4]) | K: Lolium multiflorum Lam., herbicidal effect grade (Lolium multiflorum Lam.) | R: Veronica persica, herbicidal effect grade (Veronica persica [5]) | c: corn, effect on crop grade (corn [6]) | e: wheat, effect on crop grade (wheat) | f: beet, effect on crop grade (beet) | further results
CON=C(C)CC1CC(O)=C(c2c(C)cc(-c3ccc(Cl)cc3)cc2C)C1=O (mixture of isomers) [6-029] | 5 (Herbicidal ratio of 90% or more (almost completely withered)) | 3 (Herbicidal ratio of 40% or higher and lower than 70%) | 5 (Herbicidal ratio of 90% or more (almost completely withered)) | 5 (Herbicidal ratio of 90% or more (almost completely withered)) | 4 (Herbicidal ratio of 70% or higher and lower than 90%) | 2 (Herbicidal ratio of 20% or higher and lower than 40%) | 5 (Herbicidal ratio of 90% or more (almost completely withered)) | 2 (Herbicidal ratio of 20% or higher and lower than 40%) | 5 (Herbicidal ratio of 90% or more (almost completely withered)) | 5 (Herbicidal ratio of 90% or more (almost completely withered)) | 4 (Herbicidal ratio of 70% or higher and lower than 90%) | 5 (Herbicidal ratio of 90% or more (almost completely withered)) | 5 (Herbicidal ratio of 90% or more (almost completely withered)) | 0 (Herbicidal ratio of 5% or lower (almost no effect)) | 
CON=C(C)CC1CC(O)=C(c2c(C)cc(C)cc2Br)C1=O (stereo not drawn) [6-038] | 5 (Herbicidal ratio of 90% or more (almost completely withered)) | 4 (Herbicidal ratio of 70% or higher and lower than 90%) | 5 (Herbicidal ratio of 90% or more (almost completely withered)) | 5 (Herbicidal ratio of 90% or more (almost completely withered)) | 1 (Herbicidal ratio of 5% or higher and lower than 20%) | 5 (Herbicidal ratio of 90% or more (almost completely withered)) | 5 (Herbicidal ratio of 90% or more (almost completely withered)) | 5 (Herbicidal ratio of 90% or more (almost completely withered)) | 5 (Herbicidal ratio of 90% or more (almost completely withered)) | 5 (Herbicidal ratio of 90% or more (almost completely withered)) | 3 (Herbicidal ratio of 40% or higher and lower than 70%) | 5 (Herbicidal ratio of 90% or more (almost completely withered)) | 3 (Herbicidal ratio of 40% or higher and lower than 70%) | 0 (Herbicidal ratio of 5% or lower (almost no effect)) | 
C=Cc1cc(C)c(C2=C(O)CC(CC(C)=NOC)C2=O)c(C)c1 (mixture of isomers) [6-031] | 1 (Herbicidal ratio of 5% or higher and lower than 20%) | 0 (Herbicidal ratio of 5% or lower (almost no effect)) | 0 (Herbicidal ratio of 5% or lower (almost no effect)) | 0 (Herbicidal ratio of 5% or lower (almost no effect)) | 0 (Herbicidal ratio of 5% or lower (almost no effect)) | 0 (Herbicidal ratio of 5% or lower (almost no effect)) | 0 (Herbicidal ratio of 5% or lower (almost no effect)) | 3 (Herbicidal ratio of 40% or higher and lower than 70%) | 5 (Herbicidal ratio of 90% or more (almost completely withered)) | 5 (Herbicidal ratio of 90% or more (almost completely withered)) | 1 (Herbicidal ratio of 5% or higher and lower than 20%) | 4 (Herbicidal ratio of 70% or higher and lower than 90%) | 0 (Herbicidal ratio of 5% or lower (almost no effect)) | 0 (Herbicidal ratio of 5% or lower (almost no effect)) | 
CON=C(C)C1CC(O)=C(c2c(C)cc(C)cc2C)C1=O (mixture of isomers) [3-002] | 0 (Herbicidal ratio of 5% or lower (almost no effect)) | 0 (Herbicidal ratio of 5% or lower (almost no effect)) | 0 (Herbicidal ratio of 5% or lower (almost no effect)) | 0 (Herbicidal ratio of 5% or lower (almost no effect)) | 0 (Herbicidal ratio of 5% or lower (almost no effect)) | 0 (Herbicidal ratio of 5% or lower (almost no effect)) | 0 (Herbicidal ratio of 5% or lower (almost no effect)) | 0 (Herbicidal ratio of 5% or lower (almost no effect)) | 0 (Herbicidal ratio of 5% or lower (almost no effect)) | 1 (Herbicidal ratio of 5% or higher and lower than 20%) | 0 (Herbicidal ratio of 5% or lower (almost no effect)) | 0 (Herbicidal ratio of 5% or lower (almost no effect)) | 0 (Herbicidal ratio of 5% or lower (almost no effect)) | 0 (Herbicidal ratio of 5% or lower (almost no effect)) | 
CON=C(C)CC1CC(OC(=O)c2ccc(C(F)(F)F)cc2)=C(c2c(C)cc(C)cc2C)C1=O (stereo not drawn) [1-149] | 5 (Herbicidal ratio of 90% or more (almost completely withered)) | 4 (Herbicidal ratio of 70% or higher and lower than 90%) |  |  |  |  |  |  |  |  |  |  |  |  | F: Digitaria ciliaris, herbicidal effect grade (Digitaria ciliaris; 320 g/ha): 5 (Herbicidal ratio of 90% or more (almost completely withered)); J: Alopecurus myosuroides, herbicidal effect grade (Alopecurus myosuroides [1]; 320 g/ha): 5 (Herbicidal ratio of 90% or more (almost completely withered)); R: Veronica persica, herbicidal effect grade (Veronica persica [2]; 320 g/ha): 0 (Herbicidal ratio of 5% or lower (almost no effect)); c: corn, effect grade on crop (corn [3]; 320 g/ha): 2 (Herbicidal ratio of 20% or higher and lower than 40%); b: directly sowed rice plant, effect grade on crop (rice; 320 g/ha): 5 (Herbicidal ratio of 90% or more (almost completely withered)); g: rapeseed, effect grade on crop (rapeseed; 320 g/ha): 4 (Herbicidal ratio of 70% or higher and lower than 90%); J: Alopecurus myosuroides, herbicidal effect (criteria 0-5) (Alopecurus myosuroides [4]): 5 (Herbicidal ratio of 90% or more (almost completely withered)); K: Lolium multiflorum Lam., herbicidal effect (criteria 0-5) (Lolium multiflorum Lam.): 5 (Herbicidal ratio of 90% or more (almost completely withered)); R: Veronica persica, herbicidal effect (criteria 0-5) (Veronica persica [5]): 2 (Herbicidal ratio of 20% or higher and lower than 40%); c: corn, effect on crop (criteria 0-5) (corn [6]): 4 (Herbicidal ratio of 70% or higher and lower than 90%); e: wheat, effect on crop (criteria 0-5) (wheat): 5 (Herbicidal ratio of 90% or more (almost completely withered)); f: beet, effect on crop (criteria 0-5) (beet): 2 (Herbicidal ratio of 20% or higher and lower than 40%)
CCOC(=O)C(C(=O)Cc1ccccc1)C1CC(O)=C(c2c(C)cc(C)cc2C)C1=O (stereo not drawn) [2-011] | 0 (Herbicidal ratio of 5% or lower (almost no effect)) | 0 (Herbicidal ratio of 5% or lower (almost no effect)) | 0 (Herbicidal ratio of 5% or lower (almost no effect)) | 0 (Herbicidal ratio of 5% or lower (almost no effect)) | 0 (Herbicidal ratio of 5% or lower (almost no effect)) | 0 (Herbicidal ratio of 5% or lower (almost no effect)) | 0 (Herbicidal ratio of 5% or lower (almost no effect)) | 0 (Herbicidal ratio of 5% or lower (almost no effect)) | 1 (Herbicidal ratio of 5% or higher and lower than 20%) | 2 (Herbicidal ratio of 20% or higher and lower than 40%) | 0 (Herbicidal ratio of 5% or lower (almost no effect)) | 0 (Herbicidal ratio of 5% or lower (almost no effect)) | 0 (Herbicidal ratio of 5% or lower (almost no effect)) | 0 (Herbicidal ratio of 5% or lower (almost no effect)) | 
